Laboratory results taken from paper PMC3045849 (Bioorganic & medicinal chemistry letters, 2009).
Non-standard residues stand in square brackets, D forms with d. Residues, ends and D or L forms follow the SMILES beside them. *: point of attachment. Asu = N[C@@H](CCCCCC(=O)O)C(=O)O; NH(2-NH2-phenyl) = Nc1ccccc1N*

Columns and labels:
[1] = test system: human lymphoblastoid cell line (GM15850); test: Acetylation levels of endogenous histone H3 by western blot; format: cell-based; settings: 20 µM, 48 h incubation, GM15850 cells
recombinant human HDAC3 = recombinant human HDAC3 (Homo sapiens, UniProt O15379); test: Inhibition of recombinant HDAC3; format: biochemical
Sequence of recombinant human HDAC3 (O15379 whole entry): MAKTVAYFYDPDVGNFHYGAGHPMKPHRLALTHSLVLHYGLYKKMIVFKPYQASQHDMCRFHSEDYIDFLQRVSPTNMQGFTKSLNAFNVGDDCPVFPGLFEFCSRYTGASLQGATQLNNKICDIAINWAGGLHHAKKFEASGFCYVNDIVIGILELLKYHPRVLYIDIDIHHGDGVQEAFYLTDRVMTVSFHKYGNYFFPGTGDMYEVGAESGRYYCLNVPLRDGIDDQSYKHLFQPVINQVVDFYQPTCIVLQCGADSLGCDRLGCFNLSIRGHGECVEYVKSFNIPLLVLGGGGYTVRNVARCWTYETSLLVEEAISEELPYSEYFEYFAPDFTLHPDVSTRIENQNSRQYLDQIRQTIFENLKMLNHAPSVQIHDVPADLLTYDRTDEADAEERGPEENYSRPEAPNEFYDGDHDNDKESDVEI
Sequence of recombinant human HDAC3 (Q9Y618 395-489 partner limits assumed): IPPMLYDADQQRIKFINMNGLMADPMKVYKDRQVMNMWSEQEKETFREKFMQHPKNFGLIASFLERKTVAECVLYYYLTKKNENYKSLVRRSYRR

recombinant human HDAC1 = recombinant human HDAC1 (Homo sapiens, UniProt Q13547); test: Inhibition of recombinant HDAC1; format: biochemical
Sequence of recombinant human HDAC1 (Q13547 whole entry): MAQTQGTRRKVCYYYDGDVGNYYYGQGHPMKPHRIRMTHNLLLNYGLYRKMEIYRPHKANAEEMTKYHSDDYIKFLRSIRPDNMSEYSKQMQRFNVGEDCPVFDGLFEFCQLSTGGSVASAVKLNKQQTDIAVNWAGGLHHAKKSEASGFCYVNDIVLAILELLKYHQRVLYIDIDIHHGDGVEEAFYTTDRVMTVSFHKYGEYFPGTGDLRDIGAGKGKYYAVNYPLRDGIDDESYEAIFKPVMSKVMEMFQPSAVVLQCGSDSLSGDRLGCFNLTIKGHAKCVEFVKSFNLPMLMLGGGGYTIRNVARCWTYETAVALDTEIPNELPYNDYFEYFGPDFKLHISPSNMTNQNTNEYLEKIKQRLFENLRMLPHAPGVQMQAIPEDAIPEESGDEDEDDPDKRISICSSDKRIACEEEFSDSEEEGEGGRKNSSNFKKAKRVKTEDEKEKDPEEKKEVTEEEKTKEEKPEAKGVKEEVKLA

SMILES	effect on acetylation of endogenous histone H3 [1]	IC50 (recombinant human HDAC3) [µM]	IC50 (recombinant human HDAC1) [µM]
N=C(N)NCCC[C@H](N)C(=O)NCC(=O)N[C@@H](CCCCCC(=O)Nc1ccccc1N)C(=O)Nc1ccccc1N [compound 10]	relatively stronger effects	–	–
N=C(N)NCCC[C@H](N)C(=O)NCC(=O)N[C@@H](CCCCCC(=O)Nc1ccccc1N)C(=O)NCC(=O)O [compound 13] (H-RG[Asu](NH(2-NH2-phenyl))G-OH; N-terminus and C-terminus assumed)	no effect	69.3	532
Cc1ccc(C(=O)NCC(=O)NCCC(=O)Nc2ccccc2N)cc1 [compound 15]	relatively strong effect	–	–
Cc1ccc(C(=O)N[C@@H](CCCNC(=N)N)C(=O)NCCC(=O)Nc2ccccc2N)cc1 [compound 16]	no such effect	–	–
